Read-outs that look alike come from different tables or passages of the source.
Target: T1, human enzyme NAMPT (full length) (Homo sapiens, UniProt P43490)
T1 construct: human enzyme NAMPT (full length)
Assay: NMN fluorescence biochemical assay (stimulation of NMN synthesis by NAMPT)
Settings: for EC50: concentration giving half-maximal activation, read-out: Enzymatic EC50; for Enzymatic Emax: fold change of maximal activation compared to DMSO
Procedure, shortened: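 Full-length human NAMPT (100 nM) was preincubated 15 min at 37 °C with compound in 50 mM Tris-HCl pH 7.5, 10 mM MgCl2, 2 mM DTT, then reacted 1 h at 37 °C with 50 μM NAM, 100 μM PRPP, 4 mM ATP (stated solution concentrations). NMN was derivatised with acetophenone/KOH then formic acid and read at Ex/Em 382/445 nm; EC50 and Emax (fold over DMSO) reported.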

[1] = NMN synthesis by purified human NAMPT (100 nM)
[2] = NMN fluorescence assay, purified human NAMPT 100 nM

T1 sequence (P43490 whole entry): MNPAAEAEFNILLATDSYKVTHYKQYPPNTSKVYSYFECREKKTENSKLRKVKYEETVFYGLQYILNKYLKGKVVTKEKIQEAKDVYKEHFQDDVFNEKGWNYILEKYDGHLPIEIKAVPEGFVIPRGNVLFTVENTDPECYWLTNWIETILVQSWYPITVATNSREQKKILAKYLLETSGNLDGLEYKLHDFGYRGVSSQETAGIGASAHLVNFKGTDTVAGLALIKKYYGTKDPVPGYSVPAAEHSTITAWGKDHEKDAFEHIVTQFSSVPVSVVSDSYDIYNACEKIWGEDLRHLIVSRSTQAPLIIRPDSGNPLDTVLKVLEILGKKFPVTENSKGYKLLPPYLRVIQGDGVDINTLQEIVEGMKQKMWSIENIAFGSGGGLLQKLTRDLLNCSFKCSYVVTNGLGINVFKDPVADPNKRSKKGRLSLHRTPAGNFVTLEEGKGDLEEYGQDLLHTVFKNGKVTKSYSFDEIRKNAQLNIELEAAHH

Row | EC50 [1] | Enzymatic Emax | EC50 [2] | Structure (SMILES)
1 | ≥ 5 µM | B (3≥B>2) |  | NC(=O)c1cnc(CN2C(=O)c3ccccc3C2Cc2ncccc2Br)s1 (centres unmarked) [Compound 280, 2-((1-((3-bromopyridin-2-yl)methyl)-3-oxoisoindolin-2-yl)methyl)thiazole-5-carboxamide]
2 | ≥ 5 µM | A (A>3) |  | Nn1c(=O)oc2cc(CN3C(=O)c4ccccc4C3Cc3ncccc3Br)ccc21 (centres unmarked) [Compound 256, 3-Amino-6-((1-((3-bromopyridin-2-yl)methyl)-3-oxoisoindolin-2-yl)methyl)benzo[d]oxazol-2(3H)-one]
3 | ≥ 5 µM | B (3≥B>2) |  | CC(C)c1cccnc1CC1c2ccccc2C(=O)N1Cc1ccc2[nH]c(=O)oc2c1 (centres unmarked) [Compound 181, 6-((1-((3-isopropylpyridin-2-yl)methyl)-3-oxoisoindolin-2-yl)methyl)benzo[d]oxazol-2(3H)-one]
4 | 0.5 to 5 µM | A (A>3) |  | O=C1c2ccccc2C(Cc2ccc(Br)cn2)N1Cc1ccc2[nH]c(=O)oc2c1 (centres unmarked) [Compound 262, 6-((1-((5-bromopyridin-2-yl)methyl)-3-oxoisoindolin-2-yl)methyl)benzo[d]oxazol-2(3H)-one]
5 |  | C (2≥C) | 0.5 to 5 µM | CC(=O)Nc1ncc(CN2C(=O)c3ccccc3C2Cc2ncccc2Br)cn1 (centres unmarked) [Compound 443, N-(5-((1-((3-bromopyridin-2-yl)methyl)-3-oxoisoindolin-2-yl)methyl)pyrimidin-2-yl)acetamide]
6 | ≥ 5 µM | A (A>3) |  | CC1c2cc(Cl)ccc2C(=O)N1Cc1ccc2[nH]c(=O)oc2c1 (centres unmarked) [Compound 265, 6-((5-chloro-3-methyl-1-oxoisoindolin-2-yl)methyl)benzo[d]oxazol-2(3H)-one]
7 |  | B (3≥B>2) | 0.5 to 5 µM | Cc1cc2[nH]c(=O)oc2cc1CN1C(=O)c2ccccc2C1Cc1ncccc1Br (centres unmarked) [Compound 333, 6-((1-((3-bromopyridin-2-yl)methyl)-3-oxoisoindolin-2-yl)methyl)-5-methylbenzo[d]oxazol-2(3H)-one]
8 |  | A (A>3) | ≥ 5 µM | Cc1cc(Cl)n(CC2c3ccccc3C(=O)N2Cc2ccc3[nH]nnc3c2)n1 (centres unmarked) [Compound 355, 2-((1H-benzo[d][1,2,3]triazol-5-yl)methyl)-3-((5-chloro-3-methyl-1H-pyrazol-1-yl)methyl)isoindolin-1-one]
9 | 0.5 to 5 µM | B (3≥B>2) |  | O=C1c2ccccc2C(COc2cccc(Cl)n2)N1Cc1ccc2[nH]c(=O)oc2c1 (centres unmarked) [Compound 260, 6-((1-(((6-chloropyridin-2-yl)oxy)methyl)-3-oxoisoindolin-2-yl)methyl)benzo[d]oxazol-2(3H)-one]

Continued, compound first:

Row | Structure (SMILES) | EC50 [1] | Enzymatic Emax | EC50 [2]
10 | COc1cccc2c1C(=O)N(CC1CC3(CNC(=O)O3)C1)C2Cc1c(Cl)cnn1C (centres unmarked) [Compound 433, 2-((1-((4-chloro-1-methyl-1H-pyrazol-5-yl)methyl)-4-methoxy-3-oxoisoindolin-2-yl)methyl)-5-oxa-7-azaspiro[3.4]octan-6-one] |  | B (3≥B>2) | 0.5 to 5 µM
11 | O=C1c2ccccc2C(Cc2cc(F)ccn2)N1Cc1ccc2[nH]c(=O)oc2c1 (centres unmarked) [Compound 233, 6-((1-((4-fluoropyridin-2-yl)methyl)-3-oxoisoindolin-2-yl)methyl)benzo[d]oxazol-2(3H)-one] | 0.5 to 5 µM | B (3≥B>2) | 
12 | COc1c(F)cc(CN2C(=O)c3ccccc3C2Cc2c(Cl)cnn2C)cc1F (centres unmarked) [Compound 560, 3-((4-chloro-1-methyl-1H-pyrazol-5-yl)methyl)-2-(3,5-difluoro-4-methoxybenzyl)isoindolin-1-one] |  | B (3≥B>2) | ≥ 5 µM
13 | Cc1ccnc(Cl)c1CC1c2ccccc2C(=O)N1Cc1ccc2[nH]c(=O)oc2c1 (centres unmarked) [Compound 263, 6-((1-((2-chloro-4-methylpyridin-3-yl)methyl)-3-oxoisoindolin-2-yl)methyl)benzo[d]oxazol-2(3H)-one] | < 0.5 µM | A (A>3) | 
14 | CCn1c2ccccc2c(=O)n1Cc1ccc(O)cc1 [Compound 24, 1-ethyl-2-(4-hydroxybenzyl)-1,2-dihydro-3H-indazol-3-one] | ≥ 5 µM | A (A>3) | 
15 | Cc1cccc2c1C(C)N(Cc1ccc3[nH]c(=O)oc3c1)C2=O (centres unmarked) [Compound 246, 6-((3,4-dimethyl-1-oxoisoindolin-2-yl)methyl)benzo[d]oxazol-2(3H)-one] | ≥ 5 µM | B (3≥B>2) | 
16 | Cn1cc(Cl)c(CC2c3ccccc3C(=O)N2Cc2ccc3[nH]nnc3c2)n1 (centres unmarked) [Compound 250, 2-((1H-benzo[d][1,2,3]triazol-5-yl)methyl)-3-((4-chloro-1-methyl-1H-pyrazol-3-yl)methyl) isoindolin-1-one] | < 0.5 µM | B (3≥B>2) | 
17 | Cn1nc(Cl)c(Cl)c1CC1c2ccccc2C(=O)N1C[C@H]1C[C@@]2(CNC(=O)O2)C1 (some centres unmarked) [Compound 500, (2r,4r)-2-((1-((3,4-dichloro-1-methyl-1H-pyrazol-5-yl)methyl)-3-oxoisoindolin-2-yl)methyl)-5-oxa-7-azaspiro[3.4]octan-6-one] |  | C (2≥C) | 0.5 to 5 µM
18 | Cn1ncc(Cl)c1CC1c2ccccc2C(=O)N1CC#Cc1c[nH]cn1 (centres unmarked) [Compound 452, 2-(3-(1H-imidazol-4-yl)prop-2-yn-1-yl)-3-((4-chloro-1-methyl-1H-pyrazol-5-yl)methyl)insoindolin-1-one] |  | C (2≥C) | 0.5 to 5 µM
19 | Cn1ncc(Cl)c1CC1c2ccccc2C(=O)N1Cc1ccc(OC(F)F)cc1 (centres unmarked) [Compound 528, 3-((4-chloro-1-methyl-1H-pyrazol-5-yl)methyl)-2-(4-(difluoromethoxy)benzyl)isoindolin-1-one] |  | C (2≥C) | ≥ 5 µM
20 | Cn1ncc(Cl)c1CC1c2ccccc2C(=O)N1Cc1ccc2[nH]c(=O)oc2c1 (centres unmarked) [Compound 251, 6-((1-((4-chloro-1-methyl-1H-pyrazol-5-yl)methyl)-3-oxoisoindolin-2-yl)methyl)benzo[d]oxazol-2(3H)-one] | < 0.5 µM | A (A>3) | 
21 | O=C1c2ccccc2C(Cc2ncccc2Br)N1Cc1ncc(O)cn1 (centres unmarked) [Compound 505, 3-((3-bromopyridin-2-yl)methyl)-2-((5-hydroxypyrimidin-2-yl)methyl)isoindolin-1-one] |  | C (2≥C) | ≥ 5 µM
22 | Cn1ncc(Cl)c1CC1c2ccccc2C(=O)N1Cc1ccc2ocnc2c1 (centres unmarked) [Compound 561, 2-(benzo[d]oxazol-5-ylmethyl)-3-((4-chloro-1-methyl-1H-pyrazol-5-yl)methyl)isoindolin-1-one] |  | C (2≥C) | ≥ 5 µM
23 | O=C1c2ccccc2C(Cc2ncccc2Br)N1Cc1ccc2[nH]c(O)nc2c1 (centres unmarked) [Compound 367, 3-((3-bromopyridin-2-yl)methyl)-2-((2-hydroxy-1H-benzo[d]imidazol-5-yl)methyl)isoindolin-1-one] |  | C (2≥C) | ≥ 5 µM
24 | N#Cc1nccc(Cl)c1CC1c2cccc(F)c2C(=O)N1Cc1ccc2[nH]c(=O)oc2c1 (centres unmarked) [Compound 286, 4-chloro-3-((4-fluoro-3-oxo-2-((2-oxo-2,3-dihydrobenzo[d]oxazol-6-yl)methyl)isoindolin-1-yl)methyl)picolinonitrile] | < 0.5 µM | B (3≥B>2) | 
25 | Cn1cnc(CC2c3ccccc3C(=O)N2Cc2ccc3[nH]c(=O)oc3c2)c1Cl (centres unmarked) [Compound 249, 6-((1-((5-chloro-1-methyl-1H-imidazol-4-yl)methyl)-3-oxoisoindolin-2-yl)methyl)benzo[d]oxazol-2(3H)-one] | < 0.5 µM | A (A>3) | 
26 | Cc1cnn(C)c1CC1c2ccccc2C(=O)N1Cc1ccc2[nH]nnc2c1 (centres unmarked) [Compound 365, 2-((1H-benzo[d][1,2,3]triazol-5-yl)methyl)-3-((1,4-dimethyl-1H-pyrazol-5-yl)methyl)isoindolin-1-one] |  | B (3≥B>2) | 0.5 to 5 µM
27 | O=C1c2ccccc2C(Cc2ncccc2Br)N1Cc1ccn2c(=O)[nH]nc2c1 (centres unmarked) [Compound 281, 7-((1-((3-bromopyridin-2-yl)methyl)-3-oxoisoindolin-2-yl)methyl)-[1,2,4]triazolo[4,3-a]pyridin-3(2H)-one] | ≥ 5 µM | C (2≥C) | 
28 | O=C1c2ccccc2C(Cc2ncccc2Br)N1C/C=C/c1n[nH]c(=O)o1 (centres unmarked) [Compound 458, (E)-5-(3-(1-((3-bromopyridin-2-yl)methyl)-3-oxoisoindolin-2-yl)prop-1-en-1-yl)-1,3,4-oxadiazol-2(3H)-one] |  | B (3≥B>2) | ≥ 5 µM
29 | Cn1ncc(Cl)c1CC1c2ccccc2C(=O)N1CC1CC2(COC2)C1 (centres unmarked) [Compound 564, 2-((2-oxaspiro[3.3]heptan-6-yl)methyl)-3-((4-chloro-1-methyl-1H-pyrazol-5-yl)methyl)isoindolin-1-one] |  | C (2≥C) | ≥ 5 µM
30 | O=C1c2sc(Br)nc2CN1Cc1ccc(O)cc1 [Compound 447, 2-bromo-5-(4-hydroxybenzyl)-4,5-dihydro-6H-pyrrolo[3,4-d]thiazol-6-one] |  | B (3≥B>2) | ≥ 5 µM
31 | O=C1c2ccccc2C(Cc2ncccc2Br)N1Cc1ccc2[nH]c(Cl)nc2c1 (centres unmarked) [Compound 255, 3-((3-bromopyridin-2-yl)methyl)-2-((2-chloro-1H-benzo[d]imidazol-5-yl)methyl) isoindolin-1-one] | 0.5 to 5 µM | A (A>3) | 
